According to PMC6331809, “Antigenotoxicity and Tumor Growing Inhibition by Leafy Brassica carinata and Sinigrin” (Molecules, 2015):
Values after ≈ are worked out from the molar mass of the structure shown. Values joined by “and” are separate entries in the source; they are usually repeats but may differ in a detail not shown here. Identical values can stand only once. Like-named read-outs stand apart in the source and are kept apart here. Marks after values point to notes of the source that are not given here.

What was measured:
[1] = system: hamster ovary cell line (CHO); conditions: cited from earlier work
[2] = system: Caenorhabditis elegans; design: method as in PMID 19277288; conditions: C. elegans, cited from earlier work
[3] = system: Drosophila melanogaster; assay: Toxicity in SMART: Drosophila adult survival after simple and combined (H2O2) treatment; assay type: in vivo; conditions: for Survival, average: average over all assayed concentrations
Procedure: Toxicity (T) was determined as percentage of survival adults with respect to 450 untreated 72 h old larvae from three independent experiments: T = (N° of emerging individuals in treatment/N° of emerging individuals in the negative control) × 100(1)

[4] = system: induced hepatocarcinogenesis in rats; design: method as in PMID 2387027; dose or concentration left out as unconfirmed; conditions: orally in a diet; cited from earlier work
[5] = system: Drosophila melanogaster; assay: Antigenotoxicity in SMART, combined treatment with H2O2; assay type: in vivo; conditions: for Large single spots > 2 cells; m = 5: mutation rate (number of spots) / Small single spots 1–2 cells; m = 2: diagnosis / Small single spots 1–2 cells; m = 2: mutation rate (number of spots) / Total spots m = 2: diagnosis / Total spots m = 2: mutation rate (number of spots) / Twin spots m = 5: mutation rate (number of spots): combined with 0.12 M H2O2; for Small single spots 1–2 cells; m = 2: diagnosis: key: + (positive); − (negative); for Total spots m = 2: diagnosis: key: + (positive); − (negative)
Procedure: (§1) The genotoxic and antigenotoxic activity of lyophilized leaves of B. carinata and sinigrin were evaluated by the Drosophila Somatic Mutation and Recombination Test (SMART). Drosophila is a holometabolous animal which in vivo experiments permit to make analogies with humans due to the high percentage of homologue genes in common with human. […] Both characteristics make this test an optimal protocol in order to test molecules and complex mixtures with health benefices for humans. Two different D. melanogaster strains carrying visible wing genetic markers on the left arm of chromosome 3 were used: the flare (flr) strain flr^3/ln (3LR) TM3, Bd^s and the multiple wing-hair (mwh) strain mwh/mwh. These markers were selected due to their position in the Drosophila genome, covering a wide portion of one of their four chromosomes. Specifically, they affect the wing imaginal disks which present more cells with a uniform growth during larvae development than other Drosophila imaginal disks. This fact makes possible to detect easily a high number of mutations, somatic recombinations and disjunctions produced in the Drosophila DNA during all treatment periods by wing microscopic observation. In this sense, these markers are present in other genetic background (strains) but crosses produce mutations with a basal mutation rate too high and disturbing hair anomalous pattems. The marker flare (flr^3, 3_38.3) is a recessive mutation which produces individual wing hairs that are malformed. The flr^3 allele is a zygotic recessive lethal, which is maintained in the strain over the balancer chromosome TM3 (TM3, Bd^S: Third Multiple 3, Beaded-Serrate). The marker multiple wing hairs (mwh, 3_0.3) is a recessive mutation that is viable in homozygous flies, producing multiple hairs per cell instead of the wild type single-hair trichome. Two types of crosses were used: the standard cross with flr^3/TM3, Bd^S females mated to mwh/mwh males and the reciprocal cross.
(§2) Hybrid eggs from crossing optimally fertile flies were collected over an 8-h period. Emerged larvae, 72 ± 4 h later, were cleaned up from remaining feeding medium, using sterile distilled water, and subsequently were transferred into treatment vials. These vials contained tested conditions which consisted of 0.85 g of Drosophila Instant Medium (Formula 4–24, Carolina Biological Supply, Burlington, NC, USA) wetted with 4 mL of a mixture of distilled-sterile water and the appropriate concentration of lyophilized plant or the single compound sinigrin.
(§3) Genotoxicity/antigenotoxicity tests were performed following the standard protocol. Antigenotoxicity tests were carried out by mixing the genotoxin hydrogen peroxide (H2O2, Sigma-Aldrich) with the plant or single compound in appropriate concentrations.
(§4) The groups consisting of approximately 100 larvae each were: (i) negative control (distilled water); (ii) mutagenic positive control (H2O2 0.12 M); (iii) 3 vials with increasing concentrations of B. carinata (1.25, 2.5, and 5 mg·mL^−1); and (iv) 4 vials with increasing concentrations of sinigrin (0.6, 1.2, 2.4 and 4.8 mM). Sinigrin concentrations were chosen on the basis of the sinigrin content of the B. carinata sample used in this study.
(§5) Larvae were fed on both treated and control mediums until pupation (about 48 h). After emergence, resulting adult flies were collected from the treatment vials, sacrificed under CO2 narcotization and stored in a 70% ethanol solution in sterile water.
(§6) Transheterozygous wings (mwhflr^+/mwh^+ flr^3) were mounted and wing hair mutations (spots) were scored. Both dorsal and ventral surfaces of the wings containing 22,000 cells were screened under a photonic microscope (Nikon, Amsterdam, Netherlands) at 400× magnification for the occurrence of individual spots (mwh or flr phenotype) or twin spots (mwh clone adjacent to flr clone).

[6] = system: Drosophila melanogaster
Procedure: as §1, §2, §3, §4, §5, §6

[7] = sinigrin 0.60 mM, simple treatment
[8] = sinigrin 1.20 mM, simple treatment
[9] = sinigrin 2.40 mM, simple treatment
[10] = sinigrin 4.81 mM, simple treatment

## C=CCC(=NOS(=O)(=O)O)S[C@@H]1O[C@H](CO)[C@@H](O)[C@H](O)[C@H]1O (stereo in doubt) [Sinigrin, sinigrin]
[1]; at concentrations of 2 mg·mL^−1
  Chromosome aberrations / sister chromatid exchanges: induced chromosome aberrations but not sister chromatid exchanges
[1]
  Genotoxicity and cytotoxicity: neither genotoxic nor cytotoxic
[2]
  Non-toxic up to the concentration: ≤ 80 g/L
[2]; with addition of myrosinase
  LC50: 500 µg/mL (≈ 1390 µM)
[3]; combined treatments with 0.12 M H2O2
  Survival, average: 38.11%
[3]; simple treatments
  Survival, average: 68.27%
[3]; sinigrin 0.60 mM, combined with 0.12 M H2O2
  Survival: 25.56 * %
[3]; sinigrin 0.60 mM, combined with 0.12 M H2O2, listed as sinigrin
  Survival: 25.56%
[3]; [7]
  Survival: 56.44 * %
[3]; sinigrin 1.20 mM, combined with 0.12 M H2O2
  Survival: 19.33 * %
[3]; sinigrin 1.20 mM, combined with 0.12 M H2O2, listed as sinigrin
  Survival: 19.33%
[3]; [8]
  Survival: 78.22 * %
[3]; sinigrin 1.20 mM, simple treatment, listed as sinigrin
  Survival: 78.22%
[3]; sinigrin 2.40 mM, combined with 0.12 M H2O2
  Survival: 47.33 * %
[3]; [9]
  Survival: 61.56 * %
[3]; sinigrin 4.81 mM, combined with 0.12 M H2O2
  Survival: 60.22 * %
[3]; sinigrin 4.81 mM, combined with 0.12 M H2O2, listed as sinigrin
  Survival: 60.22%
[3]; [10]
  Survival: 76.89 * %
[3]; survival average, combined (H2O2) against simple treatments
  Reduction of survival: ~ 30%
[4]
  Effect on induced hepatocarcinogenesis: able to inhibit induced hepatocarcinogenesis
[5]; sinigrin 0.60 mM
  Large single spots > 2 cells; m = 5: mutation rate (number of spots): 0 spots per wing
  Small single spots 1–2 cells; m = 2: diagnosis: −
  Small single spots 1–2 cells; m = 2: mutation rate (number of spots): 0.19 (6) spots per wing
  Total spots m = 2: diagnosis: −
  Total spots m = 2: mutation rate (number of spots): 0.19 (6) spots per wing
  Twin spots m = 5: mutation rate (number of spots): 0 spots per wing
[5]; sinigrin 1.20 mM
  Large single spots > 2 cells; m = 5: mutation rate (number of spots): 0 spots per wing
  Small single spots 1–2 cells; m = 2: diagnosis: −
  Small single spots 1–2 cells; m = 2: mutation rate (number of spots): 0.20 (4) spots per wing
  Total spots m = 2: diagnosis: −
  Total spots m = 2: mutation rate (number of spots): 0.20 (4) spots per wing
  Twin spots m = 5: mutation rate (number of spots): 0 spots per wing
[5]; sinigrin 2.40 mM
  Large single spots > 2 cells; m = 5: mutation rate (number of spots): 0 spots per wing
  Small single spots 1–2 cells; m = 2: diagnosis: −
  Total spots m = 2: diagnosis: −
  Twin spots m = 5: mutation rate (number of spots): 0 spots per wing
[5]; sinigrin 4.81 mM, against H2O2
  Percentage of inhibition of clone formation: 84.61%
[5]; sinigrin 4.81 mM
  Large single spots > 2 cells; m = 5: mutation rate (number of spots): 0 spots per wing
  Small single spots 1–2 cells; m = 2: diagnosis: −
  Small single spots 1–2 cells; m = 2: mutation rate (number of spots): 0.10 (1) spots per wing
  Total spots m = 2: diagnosis: −
  Total spots m = 2: mutation rate (number of spots): 0.10 (1) spots per wing
  Twin spots m = 5: mutation rate (number of spots): 0 spots per wing
[6]; average over all doses, simple treatment
  Total mutation rate, average: 0.15 spots per wing
[6]; [7]
  Large single spots > 2 cells; m = 5: diagnosis: −
  Large single spots > 2 cells; m = 5: mutation rate (number of spots): 0.03 (1) spots per wing
  Small single spots 1–2 cells; m = 2: diagnosis: −
  Small single spots 1–2 cells; m = 2: mutation rate (number of spots): 0.18 (7) spots per wing
  Total spots m = 2: diagnosis: −
  Total spots m = 2: mutation rate (number of spots): 0.20 (8) spots per wing
  Twin spots m = 5: mutation rate (number of spots): 0 spots per wing
[6]; [8]
  Large single spots > 2 cells; m = 5: diagnosis: −
  Large single spots > 2 cells; m = 5: mutation rate (number of spots): 0.03 (1) spots per wing
  Small single spots 1–2 cells; m = 2: diagnosis: −
  Small single spots 1–2 cells; m = 2: mutation rate (number of spots): 0.12 (4) spots per wing
  Total spots m = 2: diagnosis: −
  Total spots m = 2: mutation rate (number of spots): 0.18 (6) spots per wing
  Twin spots m = 5: diagnosis: −
  Twin spots m = 5: mutation rate (number of spots): 0.03 (1) spots per wing
[6]; [9]
  Large single spots > 2 cells; m = 5: diagnosis: −
  Large single spots > 2 cells; m = 5: mutation rate (number of spots): 0.03 (1) spots per wing
  Small single spots 1–2 cells; m = 2: diagnosis: −
  Small single spots 1–2 cells; m = 2: mutation rate (number of spots): 0.08 (3) spots per wing
  Total spots m = 2: diagnosis: −
  Total spots m = 2: mutation rate (number of spots): 0.11 (4) spots per wing
  Twin spots m = 5: mutation rate (number of spots): 0 spots per wing
[6]; [10]
  Large single spots > 2 cells; m = 5: mutation rate (number of spots): 0 spots per wing
  Small single spots 1–2 cells; m = 2: diagnosis: −
  Small single spots 1–2 cells; m = 2: mutation rate (number of spots): 0.14 (4) spots per wing
  Total spots m = 2: diagnosis: −
  Total spots m = 2: mutation rate (number of spots): 0.14 (4) spots per wing
  Twin spots m = 5: mutation rate (number of spots): 0 spots per wing

## C=CCN=C=S [AITC, allyl-ITCs, reference compound]
[1]; at high cytotoxic doses
  Genotoxicity: not genotoxic
[2]
  Lethal concentration value: 0.04 g/L

## OO [H2O2, hydrogen peroxide, reference compound]
[3]; H2O2 0.12 M, simple treatment, emerged adults vs H2O control
  Survival: 37.78% and 37.78 * %
[6]; in vivo
  Large single spots > 2 cells; m = 5: diagnosis: −
  Large single spots > 2 cells; m = 5: mutation rate (number of spots): 0.07 (11) spots per wing
  Small single spots 1–2 cells; m = 2: diagnosis: +
  Small single spots 1–2 cells; m = 2: mutation rate (number of spots): 0.60 (94) spots per wing
  Total spots m = 2: diagnosis: +
  Total spots m = 2: mutation rate (number of spots): 0.65 (109) spots per wing
  Twin spots m = 5: diagnosis: −
  Twin spots m = 5: mutation rate (number of spots): 0.06 (4) spots per wing
